For 17 compounds, IC50 and EC50 results are on record in US20240425497A1, “Cbl-b Inhibitors and Methods of Use Thereof” (ARCUS BIOSCIENCES, INC., priority 2023, published 2024).

Molecules are shown by their SMILES. Bounds are passed on as bounds.

The target in one experiment is Cbl-b (Homo sapiens (Human), UniProt Q13191). Briefly: Cbl-b probe displacement HTRF binding assay. Conditions: 0.4 nM biotinylated Cbl-b, 150 nM BODIPY probe. The protocol:
The affinity with which compounds of the present disclosure bind to Cbl-b was assessed using probe displacement homologous time resolved fluorescence (HTRF) assays. The assays used a BODIPY™ conjugated probe (Example 54 from WO 2020264398) and biotinylated Cbl-b. The assays were performed in assay buffer consisting of 20 mM Hepes, 150 mM NaCl, 0.01% Triton X-100, 0.5 mM TCEP, 0.01% BSA. On the day of the assay, a 20 point, 1:2 master serial dilution of each compound was prepared in DMSO to span a final concentration range of 10 μM to 0 nM. Two hundred nanoliters of diluted compound was added to each well of a 384-well plate. Fifteen microliters of biotinylated-Cbl-b resuspended in assay buffer were added to each well and the plate incubated for 60 minutes at room temperature prior to addition of 5 μL of BODIPY™ probe in assay buffer. Final assay conditions included 0.4 nM of Cbl-b and 150 nM of BODIPY™ probe. After a further 15 minutes of incubation at room temperature, 5 μl of Streptavidin-Terbium cryptate reagent at 5-fold final concentration was added to each well of the 384-well plate. Binding of a probe to Cbl-b results in an increase of HTRF signal. HTRF signal was measured by Envision plate reader, while competition of a compound of the present disclosure with probe results in a decrease of signal. Percentage maximum activity in each test well was calculated based on DMSO (maximum activity, 0% displacement) and no protein control wells (baseline activity, 100% displacement). Binding affinity was determined from a dose response curve fitted using a standard four parameter fit equation. See Table 3 for data for compounds (Cbl-b Binding (IC50)).
Background: In TR-FRET formats the signal depends on donor and acceptor labels being close together.

The subject of the next experiment is Jurkat cells. Kind of experiment: IL-2 secretion assay in CD3/CD28-activated Jurkat cells (AlphaLISA). Format: cell-based, human. Conditions: CD3/CD28 activation, 24 h. As to the method: Certain compounds were also evaluated in an IL-2 secretion assay. On the day of the assay, a 16 point, 1:2 master serial dilution of each compound was prepared in Opti-MEM to span a final concentration range of […]. Assays were set up in CORNING® tissue culture-treated 384-well microplates containing 60 nL of each dilution. Jurkat cells grown in RPMI-1640 supplemented with 10% FBS, 1% Glutamax, and 1% Pen/Strep were collected, resuspended in Opti-MEM. 50,000 cells/well and added to the compound plates. After a short spin (1200 rpm for 1 min), the plates were incubated at 37° C. for 1 hour. The cells were activated by adding 15 μL of IMMUNOCULT™ Human CD3/CD28 T Cell Activator (STEMCELL Technologies) diluted in Opti-MEM. After 24 h of incubation at 37° C., aliquots of culture supernatants were transferred to OptiPlate-384 (PerkinElmer) microplates. The level of JIL-2 secretion in the supernatants was then determined using the IL-2 (human) AiphaLISA Detection Kit (PerkinElmer) according to the manufacturer's recommendations. The AiphaLISA signal was measured using an EnVision plate reader (PerkinElmer). EC50 values were determined by fitting the data to a standard 4-parameter logistic equation. See Table 3 for data for select compounds (IL-2 Secretion (EC50)).
On the technique in general: In Alpha technology, singlet oxygen from a donor bead excites a nearby acceptor bead.

Sequence of Cbl-b (Q13191 whole entry, species assumed): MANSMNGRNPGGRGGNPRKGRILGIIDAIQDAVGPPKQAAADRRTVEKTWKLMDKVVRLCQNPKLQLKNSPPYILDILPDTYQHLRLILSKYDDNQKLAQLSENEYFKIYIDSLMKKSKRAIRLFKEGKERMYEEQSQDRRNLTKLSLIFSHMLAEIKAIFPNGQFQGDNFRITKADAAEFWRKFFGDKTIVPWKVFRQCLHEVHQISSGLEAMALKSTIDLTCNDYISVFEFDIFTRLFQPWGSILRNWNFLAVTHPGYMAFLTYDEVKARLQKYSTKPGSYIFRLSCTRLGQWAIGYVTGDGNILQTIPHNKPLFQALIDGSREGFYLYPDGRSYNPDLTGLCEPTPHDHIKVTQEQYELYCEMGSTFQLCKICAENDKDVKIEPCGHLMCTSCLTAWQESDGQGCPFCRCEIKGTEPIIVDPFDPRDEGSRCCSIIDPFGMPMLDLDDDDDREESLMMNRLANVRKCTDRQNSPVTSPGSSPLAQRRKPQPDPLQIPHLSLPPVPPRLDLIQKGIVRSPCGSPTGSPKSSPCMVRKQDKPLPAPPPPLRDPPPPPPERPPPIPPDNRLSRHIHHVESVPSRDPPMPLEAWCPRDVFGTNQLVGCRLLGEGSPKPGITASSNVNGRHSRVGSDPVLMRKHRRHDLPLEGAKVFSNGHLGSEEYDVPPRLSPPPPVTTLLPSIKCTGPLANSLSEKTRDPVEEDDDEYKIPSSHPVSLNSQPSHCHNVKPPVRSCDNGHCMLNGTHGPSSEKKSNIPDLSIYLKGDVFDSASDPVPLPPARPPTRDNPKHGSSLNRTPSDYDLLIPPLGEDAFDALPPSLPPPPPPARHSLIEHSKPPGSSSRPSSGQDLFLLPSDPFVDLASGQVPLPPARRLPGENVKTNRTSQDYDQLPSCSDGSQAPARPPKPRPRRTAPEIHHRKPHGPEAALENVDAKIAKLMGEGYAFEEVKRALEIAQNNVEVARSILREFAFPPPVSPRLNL

Take `O=C(c1cc(F)ccc1-c1cc(C2CC2)nc(-n2cc(C(F)(F)F)c3cc(C4COCCN4)[nH]c3c2=O)c1)N1CC(F)C1` (racemic) [Example 55, 6-[6-cyclopropyl-4-[4-fluoro-2-(3-fluoroazetidine-1-carbonyl)phenyl]pyridin-2-yl]-2-morpholin-3-yl-4-(trifluoromethyl)-1H-pyrrolo[2,3-c]pyridin-7-one]: the IC50 – broadly, the concentration needed to halve the response being measured – at Cbl-b was < 100 nM. Also, the 50% effective concentration (EC50) (usually the concentration needed to bring the measured effect to its halfway point) in the experiment with Jurkat cells (Homo sapiens) was 100 to 1000 nM.

With `CN1CCOCC1c1cc2c(C(F)(F)F)cn(-c3cc(-c4ccc(F)cc4C(=O)N4CC(F)C4)cc(C4CC4)n3)c(=O)c2[nH]1` (racemic) [Example 56, 6-[6-cyclopropyl-4-[4-fluoro-2-(3-fluoroazetidine-1-carbonyl)phenyl]pyridin-2-yl]-2-(4-methylmorpholin-3-yl)-4-(trifluoromethyl)-1H-pyrrolo[2,3-c]pyridin-7-one], the IC50 on Cbl-b was < 100 nM. Moreover, the EC50 in the experiment on Jurkat cells (Homo sapiens) was in the range of 100 to 1000 nM.

`C[C@H]1CCCN(Cc2cc3c(C4CC4)cn(-c4cc(-c5ccc(F)cc5C(=O)N(C)C)cc(C5CC5)n4)c(=O)c3[nH]2)C1` [Example 1, 2-[2-cyclopropyl-6-[4-cyclopropyl-2-[[(3S)-3-methylpiperidin-1-yl]methyl]-7-oxo-1H-pyrrolo[2,3-c]pyridin-6-yl]pyridin-4-yl]-5-fluoro-N,N-dimethylbenzamide]: on Cbl-b, the IC50 was < 100 nM. In the experiment with Jurkat cells (Homo sapiens), the EC50 is < 100 nM.

With `CCOCCNC(=O)c1cc(F)ccc1-c1cc(C2CC2)nc(-n2cc(C3CC3)c3cc(CN4CCC[C@H](C)C4)[nH]c3c2=O)c1` [Example 2, 2-[2-cyclopropyl-6-[4-cyclopropyl-2-[[(3S)-3-methylpiperidin-1-yl]methyl]-7-oxo-1H-pyrrolo[2,3-c]pyridin-6-yl]pyridin-4-yl]-N-(2-ethoxyethyl)-5-fluorobenzamide], at Cbl-b, the IC50 lay in the range of 100 to 1000 nM. Also, in the experiment with Jurkat cells (Homo sapiens), the 50% effective concentration (EC50) lay in the range of 1000 to 5000 nM.

Take `C[C@H]1CCCN(Cc2cc3c(C4CC4)cn(-c4cc(-c5ccc(F)cc5C(=O)N5CCOCC5)cc(C5CC5)n4)c(=O)c3[nH]2)C1` [Example 3, 2-{[(S)-3-methyl-1-piperidyl]methyl}-4-cyclopropyl-6-[6-cyclopropyl-4-(4-fluoro-2-morpholinocarbonylphenyl)-2-pyridyl]-1,6-dihydro-1,6-diaza-7-indenone]: the IC50 at Cbl-b was < 100 nM. This compound also returned an EC50 in the experiment on Jurkat cells (Homo sapiens) of 100 to 1000 nM.

Consider `C[C@H]1CCCN(Cc2cc3c(C4CC4)cn(-c4cc(-c5ccc(F)cc5C(=O)N5CCCC5)cc(C5CC5)n4)c(=O)c3[nH]2)C1` [Example 4, 2-{[(S)-3-methyl-1-piperidyl]methyl}-4-cyclopropyl-6-(6-cyclopropyl-4-{4-fluoro-2-[(1-pyrrolidinyl)carbonyl]phenyl}-2-pyridyl)-1,6-dihydro-1,6-diaza-7-indenone], for which the IC50 on Cbl-b was < 100 nM. For the same compound, the EC50 in the experiment on Jurkat cells (Homo sapiens) is 100 to 1000 nM.

Consider `CCN(CC)C(=O)c1cc(F)ccc1-c1cc(C2CC2)nc(-n2cc(C3CC3)c3cc(CN4CCC[C@H](C)C4)[nH]c3c2=O)c1` [Example 5, N,N-diethyl2-[2-(2-{[(S)-3-methyl-1-piperidyl]methyl}-4-cyclopropyl-7-oxo-1,6-dihydro-1,6-diaza-6-indenyl)-6-cyclopropyl-4-pyridyl]-5-fluorobenzamide], for which, at Cbl-b, the IC50 is < 100 nM. In the experiment with Jurkat cells (Homo sapiens), this compound yielded an EC50 of 100 to 1000 nM.

Consider `CNC(=O)c1cc(F)ccc1-c1cc(C2CC2)nc(-n2cc(C3CC3)c3cc(CN4CCC[C@H](C)C4)[nH]c3c2=O)c1` [Example 6, N-methyl2-[2-(2-{[(S)-3-methyl-1-piperidyl]methyl}-4-cyclopropyl-7-oxo-1,6-dihydro-1,6-diaza-6-indenyl)-6-cyclopropyl-4-pyridyl]-5-fluorobenzamide], for which, at Cbl-b, the IC50 is < 100 nM. Besides, in the experiment on Jurkat cells (Homo sapiens), the concentration giving a half-maximal response (EC50) lay within 100 to 1000 nM.

Take `C[C@H]1CCCN(Cc2cc3c(C4CC4)cn(-c4cc(-c5ccc(F)cc5C(=O)N5CCC5)cc(C5CC5)n4)c(=O)c3[nH]2)C1` [Example 7, 2-{[(S)-3-methyl-1-piperidyl]methyl}-6-(4-{2-[(1-azetidinyl)carbonyl]-4-fluorophenyl}-6-cyclopropyl-2-pyridyl)-4-cyclopropyl-1,6-dihydro-1,6-diaza-7-indenone]: the IC50 at Cbl-b is < 100 nM. In the experiment on Jurkat cells (Homo sapiens), the EC50 was < 100 nM.

As for `C[C@H]1CCCN(Cc2cc3c(C4CC4)cn(-c4cc(-c5ccc(F)cc5C(=O)N(C)c5ccccc5)cc(C5CC5)n4)c(=O)c3[nH]2)C1` [Example 8, N-methyl-N-phenyl-2-[2-(2-{[(S)-3-methyl-1-piperidyl]methyl}-4-cyclopropyl-7-oxo-1,6-dihydro-1,6-diaza-6-indenyl)-6-cyclopropyl-4-pyridyl]-5-fluorobenzamide], at Cbl-b, the IC50 fell in the range of 100 to 1000 nM. Besides, the EC50 in the experiment with Jurkat cells (Homo sapiens) is > 5000 nM.

`CC1CCCN1C(=O)c1cc(F)ccc1-c1cc(C2CC2)nc(-n2cc(C3CC3)c3cc(CN4CCC[C@H](C)C4)[nH]c3c2=O)c1` (stereo partly drawn) [Example 9, 2-{[(S)-3-methyl-1-piperidyl]methyl}-4-cyclopropyl-6-(6-cyclopropyl-4-{4-fluoro-2-[(2-methyl-1-pyrrolidinyl)carbonyl]phenyl}-2-pyridyl)-1,6-dihydro-1,6-diaza-7-indenone]: on Cbl-b, the IC50 is < 100 nM. For the same compound, the EC50 with Jurkat cells (Homo sapiens) was > 5000 nM.

For `C[C@H]1CCCN(Cc2cc3c(C4CC4)cn(-c4cc(-c5ccc(F)cc5C(=O)N5CC(F)C5)cc(C5CC5)n4)c(=O)c3[nH]2)C1` [Example 10, 2-{[(S)-3-methyl-1-piperidyl]methyl}-4-cyclopropyl-6-(6-cyclopropyl-4-{4-fluoro-2-[(3-fluoro-1-azetidinyl)carbonyl]phenyl}-2-pyridyl)-1,6-dihydro-1,6-diaza-7-indenone], the IC50 on Cbl-b is < 100 nM. Also, the half-maximal effective concentration (EC50) in the experiment with Jurkat cells (Homo sapiens) is < 100 nM.

In the case of `COC1CN(C(=O)c2cc(F)ccc2-c2cc(C3CC3)nc(-n3cc(C4CC4)c4cc(CN5CCC[C@H](C)C5)[nH]c4c3=O)c2)C1` [Example 11, 2-{[(S)-3-methyl-1-piperidyl]methyl}-4-cyclopropyl-6-(6-cyclopropyl-4-{4-fluoro-2-[(3-methoxy-1-azetidinyl)carbonyl]phenyl}-2-pyridyl)-1,6-dihydro-1,6-diaza-7-indenone], the IC50 at Cbl-b is < 100 nM. Also, the EC50 in the experiment on Jurkat cells (Homo sapiens) is 100 to 1000 nM.

At Cbl-b, `C[C@H]1CCCN(Cc2cc3c(C4CC4)cn(-c4cc(-c5ccc(F)cc5C(=O)NCC(F)(F)F)cc(C5CC5)n4)c(=O)c3[nH]2)C1` [Example 12, N-2,2,2-trifluoroethyl2-[2-(2-{[(S)-3-methyl-1-piperidyl]methyl}-4-cyclopropyl-7-oxo-1,6-dihydro-1,6-diaza-6-indenyl)-6-cyclopropyl-4-pyridyl]-5-fluorobenzamide] registered an IC50 of 100 to 1000 nM. In the experiment with Jurkat cells (Homo sapiens), this compound returned an EC50 of 100 to 1000 nM.

Regarding `CCN(C)C(=O)c1cc(F)ccc1-c1cc(C2CC2)nc(-n2cc(C3CC3)c3cc(CN4CCC[C@H](C)C4)[nH]c3c2=O)c1` [Example 13, N-ethyl-N-methyl2-[2-(2-{[(S)-3-methyl-1-piperidyl]methyl}-4-cyclopropyl-7-oxo-1,6-dihydro-1,6-diaza-6-indenyl)-6-cyclopropyl-4-pyridyl]-5-fluorobenzamide], the concentration for half-maximal inhibition (IC50) on Cbl-b was < 100 nM. For the same compound, the EC50 with Jurkat cells (Homo sapiens) lay within 100 to 1000 nM.

For the compound `CO[C@@H](C)CN(C)Cc1cc2ncn(-c3cc(-c4ccc(F)cc4C(=O)N4CC(F)(F)C4)cc(C4CC4)n3)c(=O)c2[nH]1` [Example 40, 3-[6-cyclopropyl-4-[2-(3,3-difluoroazetidine-1-carbonyl)-4-fluorophenyl]pyridin-2-yl]-6-[[[(2S)-2-methoxypropyl]-methylamino]methyl]-5H-pyrrolo[3,2-d]pyrimidin-4-one], on Cbl-b, the IC50 is < 100 nM.

Regarding `COCCNCc1cc2ncn(-c3cc(-c4ccc(F)cc4C(=O)N4CC(F)(F)C4)cc(C4CC4)c3)c(=O)c2[nH]1` [Example 42, 6-{5-cyclopropyl-2′-[(3,3-difluoro-1-azetidinyl)carbonyl]-4′-fluoro-3-biphenylyl}-2-[(2-methoxyethylamino)methyl]-1,6-dihydro-1,4,6-triaza-7-indenone], the EC50 in the experiment on Jurkat cells was < 100 nM.
